# In PMC6409085, “Three odorant-binding proteins are involved in the behavioral response of Sogatella furcifera to rice plant volatiles” (PeerJ, 2019):
# Several values for one entry are separate records, joined by “and”; a condition that tells them apart may be missing. Equal values may be shown once.
# Tests used:
# S. furcifera adults = test: Y-tube olfactometer behavioral trials; format: in vivo, Sogatella furcifera; settings: odorant 50 µL/L vs hexane; adults
# Procedure, shortened: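 Single S. furcifera adults (2 days post-emergence, starved 0.5 h) chose between odorant (100 µL of 50 µL/L on filter paper) and hexane control in a glass Y-tube, charcoal-filtered humidified air 300 mL/min per arm, 25 ± 1 °C, 50% RH. Choice scored if insect passed half an arm and stayed >1 min within 10 min; 45 insects per compound, chi-squared test.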
# SfurOBP1 = SfurOBP1 (Sogatella furcifera, UniProt V5T8N5); test: biochemical; format: binding; settings: for Fluorescence competitive binding assay, fluorescence intensity: OBP1, three replicate columns
# Chain of SfurOBP1 (V5T8N5 entry or part of it): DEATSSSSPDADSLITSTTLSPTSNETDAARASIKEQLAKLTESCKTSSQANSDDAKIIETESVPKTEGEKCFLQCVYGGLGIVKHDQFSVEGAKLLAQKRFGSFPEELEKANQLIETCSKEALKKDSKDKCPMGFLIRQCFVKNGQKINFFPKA
# Procedure, shortened: (§1)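 Fluorescence competitive binding with 1-NPN as reporter: 2.0 µM protein and 2.0 µM 1-NPN in 50 mM Tris-HCl pH 7.4, odorant added at 2–20 µM final. Excitation 337 nm, emission 390–490 nm read 2 min after addition, triplicates. Ki = IC50/(1 + [1-NPN]/K1-NPN).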
# SfurOBP2 = SfurOBP2 (Sogatella furcifera, UniProt V5T759); test: biochemical; format: binding
# Chain of SfurOBP2 (V5T759 entry or part of it): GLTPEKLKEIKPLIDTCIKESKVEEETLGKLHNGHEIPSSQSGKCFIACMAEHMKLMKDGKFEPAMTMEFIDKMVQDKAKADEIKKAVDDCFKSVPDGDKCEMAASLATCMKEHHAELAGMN
# Procedure, shortened: as §1
# SfurOBP3 = SfurOBP3 (Sogatella furcifera, UniProt V5T818); test: biochemical; format: binding; settings: for Fluorescence competitive binding assay, fluorescence intensity: OBP3, three replicate columns
# Chain of SfurOBP3 (V5T818 entry or part of it): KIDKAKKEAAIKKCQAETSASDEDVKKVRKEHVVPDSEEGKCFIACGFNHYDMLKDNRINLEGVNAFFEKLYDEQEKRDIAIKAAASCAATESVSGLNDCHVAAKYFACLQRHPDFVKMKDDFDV
# Procedure, shortened: as §1
# SfurOBP11 = SfurOBP11 (Sogatella furcifera, UniProt V5T6E3); test: biochemical; format: binding
# Chain of SfurOBP11 (V5T6E3 entry or part of it): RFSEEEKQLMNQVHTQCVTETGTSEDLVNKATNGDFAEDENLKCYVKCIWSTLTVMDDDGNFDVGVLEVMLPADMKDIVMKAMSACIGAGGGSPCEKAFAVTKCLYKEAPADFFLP
# Procedure, shortened: as §1
smiles,measurement,setting,value
C=CC(C)(O)CCC=C(C)CCC=C(C)C (mixture of isomers) [nerolidol],number of insects choosing hexane arm,S. furcifera adults,13
same,number of insects choosing volatilies arm,S. furcifera adults,15
same,number of insects failed (no choice),S. furcifera adults,12
same,"Fluorescence competitive binding assay, fluorescence intensity",SfurOBP1; ligand concentration 2 (μM),6708 and 6744 and 6934
same,"Fluorescence competitive binding assay, fluorescence intensity",SfurOBP1; ligand concentration 4 (μM),6359 and 8427 and 6473
same,"Fluorescence competitive binding assay, fluorescence intensity",SfurOBP1; ligand concentration 6 (μM),6867 and 6865 and 7375
same,"Fluorescence competitive binding assay, fluorescence intensity",SfurOBP1; ligand concentration 8 (μM),8143 and 7305 and 8959
same,"Fluorescence competitive binding assay, fluorescence intensity",SfurOBP1; ligand concentration 10 (μM),7362 and 11085 and 8523
same,"Fluorescence competitive binding assay, fluorescence intensity",SfurOBP1; ligand concentration 12 (μM),6544 and 7094 and 6753
same,"Fluorescence competitive binding assay, fluorescence intensity",SfurOBP1; ligand concentration 14 (μM),7135 and 7404 and 8089
same,"Fluorescence competitive binding assay, fluorescence intensity",SfurOBP1; ligand concentration 16 (μM),5378 and 6818 and 6356
same,"Fluorescence competitive binding assay, fluorescence intensity",SfurOBP1; ligand concentration 18 (μM),6689 and 7935 and 7391
same,"Fluorescence competitive binding assay, fluorescence intensity",SfurOBP1; ligand concentration 20 (μM),6918 and 6511 and 6565
same,IC50,"SfurOBP1; SfurOBP1, protein and 1-NPN both 2.0 µM, competitor 2-20 µM, read-out: IC50",> 20 µM
same,IC50,"SfurOBP2; SfurOBP2, protein and 1-NPN both 2.0 µM, competitor 2-20 µM, read-out: IC50",18.2 µM
same,"Fluorescence competitive binding assay, OBP2 (raw fluorescence reading)","SfurOBP2; ligand concentration 2 (unit not given), replicate column 1 of 3",16746
same,"Fluorescence competitive binding assay, OBP2 (raw fluorescence reading)","SfurOBP2; ligand concentration 2 (unit not given), replicate column 2 of 3",14676
same,"Fluorescence competitive binding assay, OBP2 (raw fluorescence reading)","SfurOBP2; ligand concentration 2 (unit not given), replicate column 3 of 3",15441
same,"Fluorescence competitive binding assay, OBP2 (raw fluorescence reading)","SfurOBP2; ligand concentration 4 (unit not given), replicate column 1 of 3",14875
same,"Fluorescence competitive binding assay, OBP2 (raw fluorescence reading)","SfurOBP2; ligand concentration 4 (unit not given), replicate column 2 of 3",15827
same,"Fluorescence competitive binding assay, OBP2 (raw fluorescence reading)","SfurOBP2; ligand concentration 4 (unit not given), replicate column 3 of 3",16107
same,"Fluorescence competitive binding assay, OBP2 (raw fluorescence reading)","SfurOBP2; ligand concentration 6 (unit not given), replicate column 1 of 3",14243
same,"Fluorescence competitive binding assay, OBP2 (raw fluorescence reading)","SfurOBP2; ligand concentration 6 (unit not given), replicate column 2 of 3",15150
same,"Fluorescence competitive binding assay, OBP2 (raw fluorescence reading)","SfurOBP2; ligand concentration 6 (unit not given), replicate column 3 of 3",15095
same,"Fluorescence competitive binding assay, OBP2 (raw fluorescence reading)","SfurOBP2; ligand concentration 8 (unit not given), replicate column 1 of 3",12994
same,"Fluorescence competitive binding assay, OBP2 (raw fluorescence reading)","SfurOBP2; ligand concentration 8 (unit not given), replicate column 2 of 3",13858
same,"Fluorescence competitive binding assay, OBP2 (raw fluorescence reading)","SfurOBP2; ligand concentration 8 (unit not given), replicate column 3 of 3",14632
same,"Fluorescence competitive binding assay, OBP2 (raw fluorescence reading)","SfurOBP2; ligand concentration 10 (unit not given), replicate column 1 of 3",12524
same,"Fluorescence competitive binding assay, OBP2 (raw fluorescence reading)","SfurOBP2; ligand concentration 10 (unit not given), replicate column 2 of 3",13543
same,"Fluorescence competitive binding assay, OBP2 (raw fluorescence reading)","SfurOBP2; ligand concentration 10 (unit not given), replicate column 3 of 3",13950
same,"Fluorescence competitive binding assay, OBP2 (raw fluorescence reading)","SfurOBP2; ligand concentration 12 (unit not given), replicate column 1 of 3",11798
same,"Fluorescence competitive binding assay, OBP2 (raw fluorescence reading)","SfurOBP2; ligand concentration 12 (unit not given), replicate column 2 of 3",13085
same,"Fluorescence competitive binding assay, OBP2 (raw fluorescence reading)","SfurOBP2; ligand concentration 12 (unit not given), replicate column 3 of 3",12945
same,"Fluorescence competitive binding assay, OBP2 (raw fluorescence reading)","SfurOBP2; ligand concentration 14 (unit not given), replicate column 1 of 3",12191
same,"Fluorescence competitive binding assay, OBP2 (raw fluorescence reading)","SfurOBP2; ligand concentration 14 (unit not given), replicate column 2 of 3",12517
same,"Fluorescence competitive binding assay, OBP2 (raw fluorescence reading)","SfurOBP2; ligand concentration 14 (unit not given), replicate column 3 of 3",12178
same,"Fluorescence competitive binding assay, OBP2 (raw fluorescence reading)","SfurOBP2; ligand concentration 16 (unit not given), replicate column 1 of 3",11027
same,"Fluorescence competitive binding assay, OBP2 (raw fluorescence reading)","SfurOBP2; ligand concentration 16 (unit not given), replicate column 2 of 3",11256
same,"Fluorescence competitive binding assay, OBP2 (raw fluorescence reading)","SfurOBP2; ligand concentration 16 (unit not given), replicate column 3 of 3",11449
same,"Fluorescence competitive binding assay, OBP2 (raw fluorescence reading)","SfurOBP2; ligand concentration 18 (unit not given), replicate column 1 of 3",11299
same,"Fluorescence competitive binding assay, OBP2 (raw fluorescence reading)","SfurOBP2; ligand concentration 18 (unit not given), replicate column 2 of 3",11344
same,"Fluorescence competitive binding assay, OBP2 (raw fluorescence reading)","SfurOBP2; ligand concentration 18 (unit not given), replicate column 3 of 3",11251
same,"Fluorescence competitive binding assay, OBP2 (raw fluorescence reading)","SfurOBP2; ligand concentration 20 (unit not given), replicate column 1 of 3",11544
same,"Fluorescence competitive binding assay, OBP2 (raw fluorescence reading)","SfurOBP2; ligand concentration 20 (unit not given), replicate column 2 of 3",11076
same,"Fluorescence competitive binding assay, OBP2 (raw fluorescence reading)","SfurOBP2; ligand concentration 20 (unit not given), replicate column 3 of 3",11172
same,"Fluorescence competitive binding assay, fluorescence intensity",SfurOBP3; ligand concentration 2,55523 and 54254 and 55950
same,"Fluorescence competitive binding assay, fluorescence intensity",SfurOBP3; ligand concentration 4,52204 and 49599 and 49733
same,"Fluorescence competitive binding assay, fluorescence intensity",SfurOBP3; ligand concentration 6,48530 and 49919 and 47140
same,"Fluorescence competitive binding assay, fluorescence intensity",SfurOBP3; ligand concentration 8,48179 and 44521 and 46350
same,"Fluorescence competitive binding assay, fluorescence intensity",SfurOBP3; ligand concentration 10,42323 and 44632 and 41414
same,"Fluorescence competitive binding assay, fluorescence intensity",SfurOBP3; ligand concentration 12,39705 and 38987 and 37616
same,"Fluorescence competitive binding assay, fluorescence intensity",SfurOBP3; ligand concentration 14,34880 and 34317 and 34633
same,"Fluorescence competitive binding assay, fluorescence intensity",SfurOBP3; ligand concentration 16,32423 and 30011 and 29519
same,"Fluorescence competitive binding assay, fluorescence intensity",SfurOBP3; ligand concentration 18,30169 and 30976 and 30764
same,"Fluorescence competitive binding assay, fluorescence intensity",SfurOBP3; ligand concentration 20,29092 and 31304 and 30368
same,binding affinity to SfurOBP3 (in words),SfurOBP3; SfurOBP3,high binding affinities
same,IC50,"SfurOBP3; SfurOBP3, protein and 1-NPN both 2.0 µM, competitor 2-20 µM, read-out: IC50",19 µM
same,IC50,"SfurOBP11; SfurOBP11, protein and 1-NPN both 2.0 µM, competitor 2-20 µM, read-out: IC50",> 20 µM
same,"Fluorescence intensity, fluorescence competitive binding assay, OBP11","SfurOBP11; ligand concentration 2, replicate 1",32108
same,"Fluorescence intensity, fluorescence competitive binding assay, OBP11","SfurOBP11; ligand concentration 2, replicate 2",31162
same,"Fluorescence intensity, fluorescence competitive binding assay, OBP11","SfurOBP11; ligand concentration 2, replicate 3",30215
same,"Fluorescence intensity, fluorescence competitive binding assay, OBP11","SfurOBP11; ligand concentration 4, replicate 1",28342
same,"Fluorescence intensity, fluorescence competitive binding assay, OBP11","SfurOBP11; ligand concentration 4, replicate 2",28762
same,"Fluorescence intensity, fluorescence competitive binding assay, OBP11","SfurOBP11; ligand concentration 4, replicate 3",29181
same,"Fluorescence intensity, fluorescence competitive binding assay, OBP11","SfurOBP11; ligand concentration 6, replicate 1",25372
same,"Fluorescence intensity, fluorescence competitive binding assay, OBP11","SfurOBP11; ligand concentration 6, replicate 2",24386
same,"Fluorescence intensity, fluorescence competitive binding assay, OBP11","SfurOBP11; ligand concentration 6, replicate 3",25974
same,"Fluorescence intensity, fluorescence competitive binding assay, OBP11","SfurOBP11; ligand concentration 8, replicate 1",24916
same,"Fluorescence intensity, fluorescence competitive binding assay, OBP11","SfurOBP11; ligand concentration 8, replicate 2",25493
same,"Fluorescence intensity, fluorescence competitive binding assay, OBP11","SfurOBP11; ligand concentration 8, replicate 3",26070
same,"Fluorescence intensity, fluorescence competitive binding assay, OBP11","SfurOBP11; ligand concentration 10, replicate 1",22613
same,"Fluorescence intensity, fluorescence competitive binding assay, OBP11","SfurOBP11; ligand concentration 10, replicate 2",22095
same,"Fluorescence intensity, fluorescence competitive binding assay, OBP11","SfurOBP11; ligand concentration 10, replicate 3",23428
same,"Fluorescence intensity, fluorescence competitive binding assay, OBP11","SfurOBP11; ligand concentration 12, replicate 1",21169
same,"Fluorescence intensity, fluorescence competitive binding assay, OBP11","SfurOBP11; ligand concentration 12, replicate 2",22102
same,"Fluorescence intensity, fluorescence competitive binding assay, OBP11","SfurOBP11; ligand concentration 12, replicate 3",22210
same,"Fluorescence intensity, fluorescence competitive binding assay, OBP11","SfurOBP11; ligand concentration 14, replicate 1",20351
same,"Fluorescence intensity, fluorescence competitive binding assay, OBP11","SfurOBP11; ligand concentration 14, replicate 2",23661
same,"Fluorescence intensity, fluorescence competitive binding assay, OBP11","SfurOBP11; ligand concentration 14, replicate 3",21671
same,"Fluorescence intensity, fluorescence competitive binding assay, OBP11","SfurOBP11; ligand concentration 16, replicate 1",17887
same,"Fluorescence intensity, fluorescence competitive binding assay, OBP11","SfurOBP11; ligand concentration 16, replicate 2",19544
same,"Fluorescence intensity, fluorescence competitive binding assay, OBP11","SfurOBP11; ligand concentration 16, replicate 3",17889
same,"Fluorescence intensity, fluorescence competitive binding assay, OBP11","SfurOBP11; ligand concentration 18, replicate 1",23369
same,"Fluorescence intensity, fluorescence competitive binding assay, OBP11","SfurOBP11; ligand concentration 18, replicate 2",23675
same,"Fluorescence intensity, fluorescence competitive binding assay, OBP11","SfurOBP11; ligand concentration 18, replicate 3",24479
same,"Fluorescence intensity, fluorescence competitive binding assay, OBP11","SfurOBP11; ligand concentration 20, replicate 1",22182
same,"Fluorescence intensity, fluorescence competitive binding assay, OBP11","SfurOBP11; ligand concentration 20, replicate 2",24009
same,"Fluorescence intensity, fluorescence competitive binding assay, OBP11","SfurOBP11; ligand concentration 20, replicate 3",23801
